These results are taken from patent US11007273B2, “Prochelators as targeted prodrugs for prostate cancer and methods of making and using same” (Duke University, priority 2017, dated 2021).

Where two headings read alike, the source gives them in different places. Some results are limits rather than exact numbers.

For data set [1], the system named is PWR-1E cells. Nature of the data set: Glu-DTC cleavage in cell culture, PWR-1E. The data set is classed as cell-based, human. As to conditions: GGT(−), 100 μM, 24 h. As to the method:
Glu-DTC cleavage in cell culture: 22Rv1 and PWR-1E cell lines were plated into a 24 well plate (2×10^5 cells/well) with their respective growth media and allowed to adhere overnight. The following day, the growth media was removed, and each cell line was washed with PBS. 2 mL of 100 μM Glu-DTC in serum free media along with 1 mM Gly-Gly was added to the cells. One batch of 22Rv1 were treated with 2 mM Acivicin, a GGT inhibitor, along with Glu-DTC and Gly-Gly. 100 μL aliquots were taken at various time points over 72 h. Each aliquot was analyzed via HPLC to generate chromatographs of the progress of Glu-DTC digestion. Caffeine was added as reference and the ratio of Glu-DTC peak area with respect to caffeine was plotted as percentage considering initial Glu-DTC level as 100%.

Data set [2] concerns 22Rv1 cells. The data set is described as follows: cells. The data set is classed as cell-based, human. The note with it: for IC50: Homo sapiens, 22Rv1, 1 μM CuSO4. As to the method:
(§1) Antiproliferation assay: To determine the amount of Cu(II) required for cell studies a checkerboard assay was performed by varying the prodrug or drug concentration and Cu(II) concentration. 22RV1, LNCaP, PC3, MCF-7, and PWR-1E (5,000 cells/well) were seeded in 96-well plates with regular media (22Rv1, LNCaP, and PC-3 in RPMI with 10% FBS; MCF-7 in DMEM with 10% FBS; PWR-1E in Keratinocyte-SFM) and let adhere for 24 h. The following day, the media was replaced with serum free media and cells were treated as indicated for an additional 24 h or 72 h. Cell proliferation was measured using a fluorometric resazurin reduction method. 20 μL of 700 μM Resazurin (Sigma R7017) was added in each well and incubated at 37° C. for 2 h. Fluorescence at 580 nm was measured by exciting at 555 nm with a plate reader. Each experiment was performed in triplicate, and the experiments were repeated three times. Viability vs drug concentration plot from a representative experiment are shown with standard deviation from the experiment as error bar. The error bar in IC50 values represents standard deviation from three different experiments.

The test system of data set [3] is MCF-7 cells. The data set is described as follows: cells. As to conditions: Homo sapiens, MCF7, MCF-7, 1 μM CuSO4, read-out: IC50 with 1 μM CuSO4. The data set is classed as cell-based, human. As for the experimental part: as §1
Data set [4] relates to LNCaP cells. Nature of the data set: cells. Format: cell-based, human. The note with it: Homo sapiens, LNCaP, LNCaP. As to the method: as §1
Data set [5] relates to PWR-1E cells. The data set is described as follows: cells. The note with it: PWR-1E, PWR-1E; for IC50: 1 μM CuSO4, read-out: IC50 with 1 μM CuSO4. Format: cell-based, human. As to the method: as §1
The test system of data set [6] is PC-3 cells. The data set is described as follows: cells. The data set is classed as cell-based, human. As to conditions: Homo sapiens, PC-3. As to the method:
as §1

Data set [7] deals with T1, GGT (Homo sapiens, UniProt P19440). Nature of the data set: Competition experiments vs. γE-pNA for GGT. The data set is classed as biochemical. The note with it: vs E-pNA; PBS, pH 7.4, 1 mM GlyGly. As for the experimental part:
Competition experiments vs. γE-pNA for GGT: To perform the inhibition study, a serial dilution of γE-pNA was performed ranging from 1 mM to 3 μM in PBS with 1 mM Gly-Gly (dilution factor=0.5; pH 7.4; 10% DMSO; 100 μL) using a clear, flat bottom 96 well plate. GGT binding molecules, as indicated, were added to separate sets of triplicate wells to reach a final concentration of 10 and 100 μM. Before the addition of enzyme, the plate was cooled to 4° C. for 15 min. To initiate the assay, 10 μL of 50 U/L GGT was added to each well and an initial absorbance scan was performed. Subsequent scans were performed every 10 min for ˜2 h. In between each scan, the plates were stored at 37° C. in a humidified incubator to reduce solvent evaporation. The experiment was repeated in triplicate.
To probe the reactivity of Glu-DTC in comparison to the enzyme's natural substrate GSH, competition experiments were conducted against the colorimetric substrate L-glutamic acid γ-(p-nitroanilide) [E-pNA]. The colorimetric assay involves monitoring p-nitroaniline release by absorbance at 405 nm upon reaction of the probe substrate E-pNA with GGT in the presence of an inhibiting substrate, either Glu-DTC (FIG. 15A) or GSH (FIG. 15C).

For data set [8], the target named is T1, GGT. The data set is described as follows: Copper-calcein competition assay with GGT exposure. The data set is classed as biochemical. The note with it: 20 U/L GGT, 1 mM Gly-Gly, 12.5 μM, 37° C. As to the method: Plots at different timepoint of GGT exposure in accordance with one embodiment of the present disclosure. […] Solutions contained 1 μM CuSO4, 1 μM calcein, 20 U/L of GGT enzyme, and 12.5 μM of either Glu-DTC (grey) or DTC (black) in PBS buffer pH 7.4 with 1 mM Gly-Gly; 37° C.
Calcein assay: In a 96-well plate 12.5 μM prodrug or DTC chelator was dissolved in PBS (pH=7.4) from a 20 mM stock solution in DMSO. To each well Calcein (Cu) was added to reach a final concentration of 1 μM. The fluorescence of calcein was measured using a plate reader with λex=485 nm and λem=535 nm. After measuring the initial fluorescence, Gly-Gly and GGT were added in each well to make up to a final concentration of 1 mM and 20 U/L respectively. The plate was scanned at various time points to observe prodrug turnover via the development of a fluorescent signal caused by Cu removal from Calcein. The fluorescence emission was plotted as percentage with fluorescence of 1 μM Calcein in PBS as 100% and 1 μM (Cu)Calcein as 0%. The experiment was repeated in triplicate and standard deviations are represented as error bars.

T1 sequence (P19440 whole entry, species assumed): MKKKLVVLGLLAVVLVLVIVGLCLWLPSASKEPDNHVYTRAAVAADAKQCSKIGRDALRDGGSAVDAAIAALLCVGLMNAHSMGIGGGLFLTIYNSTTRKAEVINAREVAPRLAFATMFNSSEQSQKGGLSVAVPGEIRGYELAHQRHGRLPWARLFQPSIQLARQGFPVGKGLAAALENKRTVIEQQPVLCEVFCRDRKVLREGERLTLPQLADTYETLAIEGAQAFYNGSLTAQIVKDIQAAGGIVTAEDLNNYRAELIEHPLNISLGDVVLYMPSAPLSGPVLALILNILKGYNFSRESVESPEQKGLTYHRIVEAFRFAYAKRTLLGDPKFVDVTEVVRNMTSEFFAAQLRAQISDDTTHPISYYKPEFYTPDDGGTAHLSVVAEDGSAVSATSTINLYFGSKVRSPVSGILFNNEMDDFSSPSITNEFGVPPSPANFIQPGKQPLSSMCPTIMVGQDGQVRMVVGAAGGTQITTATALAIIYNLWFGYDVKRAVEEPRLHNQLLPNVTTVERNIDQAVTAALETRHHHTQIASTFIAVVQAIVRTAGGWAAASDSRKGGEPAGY

Take `CCN(CC)C(=S)SCc1ccc(NC(=O)CC[C@H](N)C(=O)O)cc1` [Glu-DTC]: in data set [1], the “level of intact Glu-DTC in supernatant” value is “unchanged”. Moreover, the IC50 in data set [2] (24 h, read-out: IC50) was 800 nM; in data set [2] (24 h, read-out: IC50 with 1 μM CuSO4), 760 ± 90 nM; in data set [2] (72 h, read-out: IC50 with 1 μM CuSO4) it was 290 ± 110 nM; in data set [2] (72 h continuous exposure, read-out: IC50), 300 nM; in data set [3] (24 h), 1700 ± 100 nM; in data set [3] (72 h), 480 ± 40 nM. Further, the IC50 in data set [4] (24 h, 24 h, 1 μM CuSO4, read-out: IC50) was 800 nM; in data set [4] (24 h, 24 h, 1 μM CuSO4, read-out: IC50 with 1 μM CuSO4), 620 ± 40 nM; in data set [4] (24 h, initial experiments, after 24 h, 1 μM supplemental Cu(II), read-out: IC50), 760 nM; in data set [4] (72 h, 72 h, 1 μM CuSO4, read-out: IC50 with 1 μM CuSO4) it was 500 ± 90 nM; in data set [5] (Homo sapiens, 24 h, 24 h) it was more than 15000 nM; in data set [5] (Homo sapiens, 72 h, 72 h) it was 1500 nM. Moreover, the IC50 in data set [5] (24 h) is 16800 ± 4400 nM; in data set [5] (72 h), 1550 ± 20 nM; in data set [6] (initial experiments, PC3, 24 h, above maximum tested 10 μM, obtained by extrapolation of the curve (FIG. 10A), read-out: IC50), approximately 12000 nM; in data set [6] (24 h, 1 μM CuSO4, read-out: IC50 with 1 μM CuSO4), 5500 ± 100 nM; in data set [6] (72 h, 1 μM CuSO4, read-out: IC50 with 1 μM CuSO4), 1320 ± 250 nM. In addition, in data set [2] (checkerboard pilot studies in 22Rv1 cells), the “Cu(II) added to the growth medium required for antiproliferative activity” value is given as 300 nM. Moreover, the toxicity result in data set [5] (initial experiments, within the tested concentration of 10 μM) was “did not show much toxicity”. In addition, the affinity in data set [7] corresponds to a Ki of 23000 ± 5000 nM. The “calcein fluorescence after exposure to GGT enzyme” value in data set [8] was “recovery of calcein fluorescence over time”.

For orientation: IC50 means the concentration that inhibits the measured activity by half. What is called Ki is the dissociation constant of the complex between target and ligand, obtained from inhibition or displacement. Read a low Ki as a stronger hold on the target.
